In ChEMBL document CHEMBL3098061, “Design and synthesis of an aminopiperidine series of γ-secretase modulators” (Bioorg Med Chem Lett, 2014):
Values after ≈ are worked out from the molar mass of the structure shown.

Experiments:
[1] = organism: Rattus norvegicus; experiment: Modulation of gamma-secretase in rat fetus primary neurons assessed as inhibition of amyloid beta42 production at 2.5 uM after 1 to 3 days by ELISA
[2] = system: Mus musculus; experiment: Reduction in amyloid beta42 production in wild type mouse plasma at 100 mg/kg, po; assay type: functional; parameters: scale not given: the % may be the effect or the level left
[3] = Aqueous solubility of the compound at pH 7.4; assay type: physicochemical
[4] = system: Mus musculus; experiment: Reduction in amyloid beta42 production in wild type mouse hippocampus at 100 mg/kg, po; assay type: functional; parameters: scale not given: the % may be the effect or the level left
[5] = Permeability of the compound at pH 7.4 by PAMPA; assay type: ADME; settings: read-out: permeability
[6] = Modulation of gamma-secretase in rat fetus primary neurons assessed as inhibition of amyloid beta42 production after 1 to 3 days by ELISA

| SMILES | inhibition [1] [%] | also measured |
| --- | --- | --- |
| COc1cc(C(=O)N[C@H]2CCCN(Cc3cccc(C(F)(F)F)c3)C2)ccc1-n1cnc(C)c1 | 82 |  |
| COc1cc(C(=O)NC2CCCN(Cc3ccccc3)C2)ccc1-n1cnc(C)c1 (racemic) | 37 |  |
| COc1cc(C(=O)N(C)C2CCCN(Cc3cccc(C(F)(F)F)c3)C2)ccc1-n1cnc(C)c1 (configuration not stated) | < 1 |  |
| COc1cc(C(=O)N2C3CCC2CN(Cc2cccc(C(F)(F)F)c2)C3)ccc1-n1cnc(C)c1 | 19 |  |
| COc1cc(C(=O)NC2CCN(Cc3cccc(C(F)(F)F)c3)CC2)ccc1-n1cnc(C)c1 | 78 |  |
| CCN(C(=O)c1ccc(-n2cnc(C)c2)c(OC)c1)C1CCCN(Cc2cccc(C(F)(F)F)c2)C1 (configuration not stated) | < 1 |  |
| COc1cc(C(=O)N[C@@H]2CCCN(Cc3cccc(C(F)(F)F)c3)C2)ccc1-n1cnc(C)c1 | 72 |  |
| COc1cc(C(=O)N2CC3CC2CN3Cc2cccc(C(F)(F)F)c2)ccc1-n1cnc(C)c1 (configuration not stated) | 51 |  |
| COc1cc(C(=O)NC2CCCN(Cc3ccc(C(F)(F)F)cc3)C2)ccc1-n1cnc(C)c1 (racemic) | 90 |  |
| COc1cc(C(=O)N2CCC(NCc3cccc(C(F)(F)F)c3)C2)ccc1-n1cnc(C)c1 (configuration not stated) | 39 |  |
| COc1cc(C(=O)NC2CC3CCC(C2)N3Cc2cccc(C(F)(F)F)c2)ccc1-n1cnc(C)c1 (configuration not stated) | 40 |  |
| COc1cc(C(=O)NC2CCN(Cc3cccc(C(F)(F)F)c3)C2)ccc1-n1cnc(C)c1 (configuration not stated) | 31 |  |
| COc1cc(C(=O)N(C(C)C)C2CCCN(Cc3cccc(C(F)(F)F)c3)C2)ccc1-n1cnc(C)c1 (configuration not stated) | < 1 |  |
| COc1cc(C(=O)N[C@H]2CCCN(Cc3ccc(C(F)(F)F)cc3)C2)ccc1-n1cnc(C)c1 | 92 |  |
| COc1cc(C(=O)N2CCCC(NCc3cccc(C(F)(F)F)c3)C2)ccc1-n1cnc(C)c1 (configuration not stated) | 17 |  |
| COc1cc(C(=O)N[C@@H]2CCCN(Cc3ccc(C(F)(F)F)cc3)C2)ccc1-n1cnc(C)c1 | 57 |  |
| COc1cc(C(=O)N2CCN(Cc3cccc(C(F)(F)F)c3)CC2)ccc1-n1cnc(C)c1 | 18 |  |

Continued, in another order:

| inhibition [1] [%] | SMILES | also measured |
| --- | --- | --- |
| 93 | COc1cc(C(=O)NC2CCCN(Cc3ccc(Br)cc3)C2)ccc1-n1cnc(C)c1 (racemic) |  |
| 55 | COc1cc(C(=O)N[C@@H]2CCCN(Cc3ccc(Br)cc3)C2)ccc1-n1cnc(C)c1 |  |
| 54 | COc1cc(C(=O)NC2CCCN(Cc3cccc(C)c3)C2)ccc1-n1cnc(C)c1 (racemic) |  |
| 97 | COc1cc(C(=O)N[C@H]2CCCN(Cc3ccc(Br)cc3)C2)ccc1-n1cnc(C)c1 | Activity [2]: 66%; solubility [3]: 8 µg/mL (≈ 16.5 µM); Activity [4]: 55%; Papp [5]: 50 ×10⁻⁶ cm/s; IC50 [6]: 250 nM |
| 45 | COc1ccc(CN2CCCC(NC(=O)c3ccc(-n4cnc(C)c4)c(OC)c3)C2)cc1 (racemic) |  |
| 55 | COc1cc(C(=O)N[C@H]2CCCN(C(=O)c3ccc(C)cc3)C2)ccc1-n1cnc(C)c1 |  |
| 62 | COc1cc(C(=O)NC2CCCN(Cc3ccccc3C)C2)ccc1-n1cnc(C)c1 (racemic) |  |
| 28 | COc1cc(C(=O)NC2CCCN(C(=O)NCc3ccc(C)cc3)C2)ccc1-n1cnc(C)c1 (racemic) |  |
| 90 | COc1cc(C(=O)N[C@H]2CCCN(Cc3ccc(C)cc3)C2)ccc1-n1cnc(C)c1 |  |
| 25 | COc1cc(C(=O)NC2CCCN(C(=O)NCc3ccccc3)C2)ccc1-n1cnc(C)c1 (racemic) |  |
| 82 | COc1cc(C(=O)NC2CCCN(Cc3ccc(C)cc3)C2)ccc1-n1cnc(C)c1 (racemic) |  |
| 34 | COc1cc(C(=O)N[C@H]2CCCN(C(=O)c3ccc(C(F)(F)F)cc3)C2)ccc1-n1cnc(C)c1 |  |
| 47 | COc1cc(C(=O)NC2CCCN(C(=O)NCc3ccc(Br)cc3)C2)ccc1-n1cnc(C)c1 (racemic) |  |
| 36 | COc1cc(C(=O)N[C@@H]2CCCN(Cc3ccc(C)cc3)C2)ccc1-n1cnc(C)c1 |  |
| 64 | COc1cc(C(=O)N[C@H]2CCCN(C(=O)c3ccc(Br)cc3)C2)ccc1-n1cnc(C)c1 |  |
